{"source": "PubChem BioAssay AID1918938", "about": "(Molecular Pharmacology Branch, DTP, NCI, 2023);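 further: spheroids exposed to agents for seven days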;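 on viability, T/C: 100% = DMSO vehicle control wells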", "test_system": "556581-035-R-J1-PDC complex spheroid viability", "assay": "Anticancer human tumor 556581-035-R-J1-PDC patient-derived ovarian carcinoma cell line growth inhibition", "conditions": "for IC50: curve of first compound; for viability, T/C: stronger effect = lower value", "procedure,_shortened": "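Multicellular complex spheroids of tumor cells with human endothelial cells (HUVEC) and mesenchymal stem cells; the LSD1 inhibitor iadademstat was combined with standard-of-care or investigational agents. Top concentration at or near clinical Cmax, half-log dilutions; final DMSO ≤0.25%.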"}
{"smiles": "COc1cc(C2c3cc4c(cc3C(OC3OC5COC(C)OC5C(O)C3O)C3COC(=O)C23)OCO4)cc(OC)c1O", "note": "(stereo not given) + NC1CCC(NC2CC2c2ccccc2)CC1", "values": [{"measurement": "IC50", "setting": "second compound 0.1 µM", "value": 0.481, "unit": "µM"}, {"measurement": "IC50", "setting": "second compound 0.316 µM", "value": 0.451, "unit": "µM"}, {"measurement": "IC50", "setting": "second compound 1 µM", "value": 0.559, "unit": "µM"}, {"measurement": "IC50", "setting": "second compound 3.16 µM", "value": 0.501, "unit": "µM"}, {"measurement": "IC50", "setting": "second compound 10 µM", "value": 0.33, "unit": "µM"}, {"measurement": "viability, T/C", "setting": "second compound 0.1 µM, first compound 0.00949 µM", "value": 86.7, "unit": "%"}, {"measurement": "viability, T/C", "setting": "second compound 0.1 µM, first compound 0.03 µM", "value": 84.7, "unit": "%"}, {"measurement": "viability, T/C", "setting": "second compound 0.1 µM, first compound 0.0949 µM", "value": 68.6, "unit": "%"}, {"measurement": "viability, T/C", "setting": "second compound 0.1 µM, first compound 0.3 µM", "value": 55.5, "unit": "%"}, {"measurement": "viability, T/C", "setting": "second compound 0.1 µM, first compound 0.949 µM", "value": 42.3, "unit": "%"}, {"measurement": "viability, T/C", "setting": "second compound 0.1 µM, first compound 3 µM", "value": 26.2, "unit": "%"}, {"measurement": "viability, T/C", "setting": "second compound 0.316 µM, first compound 0.00949 µM", "value": 107, "unit": "%"}, {"measurement": "viability, T/C", "setting": "second compound 0.316 µM, first compound 0.03 µM", "value": 84.7, "unit": "%"}, {"measurement": "viability, T/C", "setting": "second compound 0.316 µM, first compound 0.0949 µM", "value": 75.3, "unit": "%"}, {"measurement": "viability, T/C", "setting": "second compound 0.316 µM, first compound 0.3 µM", "value": 58.6, "unit": "%"}, {"measurement": "viability, T/C", "setting": "second compound 0.316 µM, first compound 0.949 µM", "value": 36.1, "unit": "%"}, {"measurement": "viability, T/C", "setting": "second compound 0.316 µM, first compound 3 µM", "value": 23.9, "unit": "%"}, {"measurement": "viability, T/C", "setting": "second compound 1 µM, first compound 0.00949 µM", "value": 76.8, "unit": "%"}, {"measurement": "viability, T/C", "setting": "second compound 1 µM, first compound 0.03 µM", "value": 76.2, "unit": "%"}, {"measurement": "viability, T/C", "setting": "second compound 1 µM, first compound 0.0949 µM", "value": 68.3, "unit": "%"}, {"measurement": "viability, T/C", "setting": "second compound 1 µM, first compound 0.3 µM", "value": 58.8, "unit": "%"}, {"measurement": "viability, T/C", "setting": "second compound 1 µM, first compound 0.949 µM", "value": 42.6, "unit": "%"}, {"measurement": "viability, T/C", "setting": "second compound 1 µM, first compound 3 µM", "value": 19.2, "unit": "%"}, {"measurement": "viability, T/C", "setting": "second compound 3.16 µM, first compound 0.00949 µM", "value": 88.6, "unit": "%"}, {"measurement": "viability, T/C", "setting": "second compound 3.16 µM, first compound 0.03 µM", "value": 66.5, "unit": "%"}, {"measurement": "viability, T/C", "setting": "second compound 3.16 µM, first compound 0.0949 µM", "value": 74.9, "unit": "%"}, {"measurement": "viability, T/C", "setting": "second compound 3.16 µM, first compound 0.3 µM", "value": 53.5, "unit": "%"}, {"measurement": "viability, T/C", "setting": "second compound 3.16 µM, first compound 0.949 µM", "value": 45.8, "unit": "%"}, {"measurement": "viability, T/C", "setting": "second compound 3.16 µM, first compound 3 µM", "value": 23.4, "unit": "%"}, {"measurement": "viability, T/C", "setting": "second compound 10 µM, first compound 0.00949 µM", "value": 71.3, "unit": "%"}, {"measurement": "viability, T/C", "setting": "second compound 10 µM, first compound 0.03 µM", "value": 68.4, "unit": "%"}, {"measurement": "viability, T/C", "setting": "second compound 10 µM, first compound 0.0949 µM", "value": 68.7, "unit": "%"}, {"measurement": "viability, T/C", "setting": "second compound 10 µM, first compound 0.3 µM", "value": 48.3, "unit": "%"}, {"measurement": "viability, T/C", "setting": "second compound 10 µM, first compound 0.949 µM", "value": 38.8, "unit": "%"}, {"measurement": "viability, T/C", "setting": "second compound 10 µM, first compound 3 µM", "value": 28.4, "unit": "%"}]}
{"smiles": "Nc1ncn(C2CC(O)C(CO)O2)c(=O)n1", "note": "(stereo not given) + NC1CCC(NC2CC2c2ccccc2)CC1", "values": [{"measurement": "IC50", "setting": "second compound 0.1 µM", "value": "> 1", "unit": "µM"}, {"measurement": "IC50", "setting": "second compound 0.316 µM", "value": "> 1", "unit": "µM"}, {"measurement": "IC50", "setting": "second compound 1 µM", "value": "> 1", "unit": "µM"}, {"measurement": "IC50", "setting": "second compound 3.16 µM", "value": "> 1", "unit": "µM"}, {"measurement": "IC50", "setting": "second compound 10 µM", "value": "> 1", "unit": "µM"}, {"measurement": "viability, T/C", "setting": "second compound 0.1 µM, first compound 0.00316 µM", "value": 96, "unit": "%"}, {"measurement": "viability, T/C", "setting": "second compound 0.1 µM, first compound 0.01 µM", "value": 98, "unit": "%"}, {"measurement": "viability, T/C", "setting": "second compound 0.1 µM, first compound 0.0316 µM", "value": 87.2, "unit": "%"}, {"measurement": "viability, T/C", "setting": "second compound 0.1 µM, first compound 0.1 µM", "value": 80, "unit": "%"}, {"measurement": "viability, T/C", "setting": "second compound 0.1 µM, first compound 0.316 µM", "value": 79.3, "unit": "%"}, {"measurement": "viability, T/C", "setting": "second compound 0.1 µM, first compound 1 µM", "value": 77.2, "unit": "%"}, {"measurement": "viability, T/C", "setting": "second compound 0.316 µM, first compound 0.00316 µM", "value": 87.8, "unit": "%"}, {"measurement": "viability, T/C", "setting": "second compound 0.316 µM, first compound 0.01 µM", "value": 90.2, "unit": "%"}, {"measurement": "viability, T/C", "setting": "second compound 0.316 µM, first compound 0.0316 µM", "value": 84, "unit": "%"}, {"measurement": "viability, T/C", "setting": "second compound 0.316 µM, first compound 0.1 µM", "value": 82.2, "unit": "%"}, {"measurement": "viability, T/C", "setting": "second compound 0.316 µM, first compound 0.316 µM", "value": 79.1, "unit": "%"}, {"measurement": "viability, T/C", "setting": "second compound 0.316 µM, first compound 1 µM", "value": 77.7, "unit": "%"}, {"measurement": "viability, T/C", "setting": "second compound 1 µM, first compound 0.00316 µM", "value": 96.5, "unit": "%"}, {"measurement": "viability, T/C", "setting": "second compound 1 µM, first compound 0.01 µM", "value": 84.3, "unit": "%"}, {"measurement": "viability, T/C", "setting": "second compound 1 µM, first compound 0.0316 µM", "value": 89.5, "unit": "%"}, {"measurement": "viability, T/C", "setting": "second compound 1 µM, first compound 0.1 µM", "value": 75.2, "unit": "%"}, {"measurement": "viability, T/C", "setting": "second compound 1 µM, first compound 0.316 µM", "value": 71.8, "unit": "%"}, {"measurement": "viability, T/C", "setting": "second compound 1 µM, first compound 1 µM", "value": 76.8, "unit": "%"}, {"measurement": "viability, T/C", "setting": "second compound 3.16 µM, first compound 0.00316 µM", "value": 88.9, "unit": "%"}, {"measurement": "viability, T/C", "setting": "second compound 3.16 µM, first compound 0.01 µM", "value": 84.5, "unit": "%"}, {"measurement": "viability, T/C", "setting": "second compound 3.16 µM, first compound 0.0316 µM", "value": 82.7, "unit": "%"}, {"measurement": "viability, T/C", "setting": "second compound 3.16 µM, first compound 0.1 µM", "value": 67.2, "unit": "%"}, {"measurement": "viability, T/C", "setting": "second compound 3.16 µM, first compound 0.316 µM", "value": 80.5, "unit": "%"}, {"measurement": "viability, T/C", "setting": "second compound 3.16 µM, first compound 1 µM", "value": 76.7, "unit": "%"}, {"measurement": "viability, T/C", "setting": "second compound 10 µM, first compound 0.00316 µM", "value": 73.8, "unit": "%"}, {"measurement": "viability, T/C", "setting": "second compound 10 µM, first compound 0.01 µM", "value": 82.5, "unit": "%"}, {"measurement": "viability, T/C", "setting": "second compound 10 µM, first compound 0.0316 µM", "value": 76.4, "unit": "%"}, {"measurement": "viability, T/C", "setting": "second compound 10 µM, first compound 0.1 µM", "value": 70.8, "unit": "%"}, {"measurement": "viability, T/C", "setting": "second compound 10 µM, first compound 0.316 µM", "value": 65.9, "unit": "%"}, {"measurement": "viability, T/C", "setting": "second compound 10 µM, first compound 1 µM", "value": 64.7, "unit": "%"}]}
